In patent US12396961B2, “Compounds and compositions for intracellular delivery of agents” (ModernaTX, Inc., priority 2015, dated 2025):
Entries after “also recorded” stand apart in the source; their conditions may differ.

What was measured:
[1] = Particle size and polydispersity index (Zetasizer Nano ZS); assay type: physicochemical; details: for PDI: DOPE 40:20:38.5:1.5, Luc mRNA
Procedure, shortened: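 Particle size and polydispersity index were measured by dynamic light scattering on a Zetasizer Nano ZS in 1×PBS. Zeta potential was measured in 15 mM PBS.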

[2] = Encapsulation efficiency of RNA (QUANT-IT RIBOGREEN RNA assay); assay type: physicochemical
Source text: The efficiency of encapsulation of a therapeutic and/or prophylactic agent describes the amount of therapeutic and/or prophylactic agent that is encapsulated or otherwise associated with a nanoparticle composition after preparation, relative to the initial amount provided. The encapsulation efficiency is desirably high (e.g., close to 100%). The encapsulation efficiency may be measured, for example, by comparing the amount of therapeutic and/or prophylactic agent in a solution containing the nanoparticle composition before and after breaking up the nanoparticle composition with one or more organic solvents or detergents. Fluorescence may be used to measure the amount of free therapeutic and/or prophylactic agent (e.g., RNA) in a solution. […]
For nanoparticle compositions including an RNA, a QUANT-IT™ RIBOGREEN® RNA assay (Invitrogen Corporation Carlsbad, CA) can be used to evaluate the encapsulation of an RNA by the nanoparticle composition. […] The fluorescence intensity can be measured using a fluorescence plate reader (Wallac Victor 1420 Multilablel Counter; Perkin Elmer, Waltham, MA) at an excitation wavelength of, for example, about 480 nm and an emission wavelength of, for example, about 520 nm. […]

[3] = tested on: GFP mRNA expression in liver cells; assay: Mouse liver immunohistochemistry (IHC) of GFP after GFP mRNA LNP; assay type: in vivo, CD-1 mouse; LDLR knockout mouse; details: i.v. 0.5 mpk; MC3: CD-1 mouse, 6h; Compound 4: LDLR knockout mouse, 8h
Method: FIG. 11 is a pair of images comparing the results of a mouse liver immunohistochemistry (IHC) using mRNA expressing green fluorescent protein (GFP) after administration of nanoparticle compositions containing Compound 4 and MC3.
FIG. 16 is a graph showing GFP levels in the livers of LDLR knockout mice at 30 min to 24 h after intravenous administration of an eGFP RNA in a lipid composition containing Compound 4. The liver GFP levels were determined via IHC. The square markers represent the number of GFP positive cells following administration of a dose of 0.1 mpk of the composition. The circular markers represent the number of GFP positive cells following administration of a dose of 0.5 mpk of the composition.

[4] = tested on: luciferase (Luc) mRNA expression; assay: Luc expression (AUC) in CD-1 mice relative to MC3; assay type: in vivo; details: for Lipid/MC3 Luc CD-1 (mice): Luc expression relative to MC3, CD-1 mice; for Lipid/MC3 AUC CD-1 mice 0.5 mpk: Table 7b, Luc expression
Procedure, shortened: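 CD-1 mice dosed at 0.5 mpk with nanoparticle compositions carrying luciferase mRNA; total light flux acquired by whole-body luminescent imaging 6 h after administration. Expression referenced to MC3-containing composition.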

[5] = tested on: LDLr mRNA / Luc expression; assay: Expression (AUC) in LDLr−/− mice relative to KL22; assay type: in vivo; details: Table 7b
[6] = tested on: hEPO mRNA expression; assay: Expression of hEPO after intravenous administration to rats; assay type: in vivo
Method: PBS (phosphate buffered saline) is used as control.
Formulations were prepared according to Table 5 and included mRNA encoding hEPO.
[…] After the 48 hour time point, livers and spleens were harvested and frozen.

[7] = tested on: luciferase (Luc) mRNA expression; assay: Expression of Luc, bioluminescence (total flux) after intravenous administration to mice; assay type: in vivo; details: mice i.v. 0.5 mg/kg; 3, 6, 24 hours; 0.5 mg/kg
Method: In order to monitor how effectively various nanoparticle compositions deliver therapeutic and/or prophylactic agents to targeted cells, different nanoparticle compositions including a particular therapeutic and/or prophylactic agent (for example, a modified or naturally occurring RNA such as an mRNA) are prepared and administered to rodent populations. Mice are intravenously, intramuscularly, intraarterially, or intratumorally administered a single dose including a nanoparticle composition with a formulation such as those provided in Table 1. In some instances, mice may be made to inhale doses. Dose sizes may range from 0.001 mg/kg to 10 mg/kg, where 10 mg/kg describes a dose including 10 mg of a therapeutic and/or prophylactic agent in a nanoparticle composition for each 1 kg of body mass of the mouse. A control composition including PBS may also be employed.
Upon administration of nanoparticle compositions to mice, dose delivery profiles, dose responses, and toxicity of particular formulations and doses thereof can be measured by enzyme-linked immunosorbent assays (ELISA), bioluminescent imaging, or other methods. For nanoparticle compositions including mRNA, time courses of protein expression can also be evaluated. Samples collected from the rodents for evaluation may include blood, sera, and tissue (for example, muscle tissue from the site of an intramuscular injection and internal tissue); sample collection may involve sacrifice of the animals.
The efficacy of the nanoparticle compositions presented in Tables 1, la, 17-1, 19-1, 20-1 and 21-1 was evaluated with a bioluminescence study. Formulations were administered intravenously to mice (n=6) at a dosage of 0.5 mg/kg (mpk) and bioluminescence measured at 3, 6, and 24 hour time points. The standard MC3 formulation and a PBS control were evaluated for comparison.

[8] = Lipid levels (clearance) in liver and spleen 48 hours after administration; assay type: in vivo, rats; details: rat liver, 48 h
Method: Formulations were administered intravenously to rats (n=3 or 6) at a dosage of 0.2 mg/kg or 0.5 mg/kg (mpk) and hEPO levels measured at 3, 6, and 24 hour time points. After the 48 hour time point, livers and spleens were harvested and frozen.
The amount of lipid in the liver and spleen 48 hours after administration of a nanoparticle composition was also measured. […] In contrast, approximately 60% of doses including MC3 or Compound 22 remained in the liver after 48 hours. Less than 3% of the dose remained in the spleen for each composition tested.

[9] = tested on: luciferase (Luc) mRNA expression; assay: Expression of Luc in different organs (liver, lung, spleen, femur) 6 hours after intravenous administration; assay type: in vivo; details: mice i.v. 0.5 mpk, 0.5 mg/kg
Method: The efficacy of the nanoparticle compositions presented in Tables 1, la, 17-1, 19-1, 20-1 and 21-1 was further evaluated by measuring the expression of modified luciferase in the liver, lung, spleen, and femur upon administration of a given composition. Formulations were administered intravenously to mice (n=3) at a dosage of 0.5 mpk and bioluminescence measured after 6 hours. The standard MC3 formulation and a PBS control were also tested.

[10] = tested on: rats; assay: Tolerability / toxicity in rats dosed i.v. with hEPO mRNA LNP; assay type: in vivo; details: 2 mg/kg dose
[11] = tested on: LDL-c; assay: LDL (LDL-c) levels in LDLr−/− mice after mRNA encoding the LDL receptor; assay type: in vivo, LDLR knockout mice; details: Compound 11 at 0.5 and 1 mpk
[12] = tested on: hEPO mRNA expression; assay: hEPO levels in non-human primates; assay type: in vivo
Method: FIG. 10 is a graph showing hEPO levels in non-human primates up to −50 h after administration of a nanoparticle composition containing Compound 4, compared to a composition containing MC3.
The tolerability and efficacy of nanoparticle compositions to non-human primates is evaluated in Cynomolgus monkeys. Monkeys are administered an optimized nanoparticle composition including an mRNA encoding hEPO once weekly for four weeks. The levels of hEPO protein, mRNA, and cytokine profiles are measured using ELISA-based techniques before and 2, 6, 12, 24, 48, 72, and 120 hours after each administration.

| % dose remaining Rat liver (48 h) [8] | SMILES | GFP protein expression in liver cell types (IHC, FIG. 11) [3] | Lipid/MC3 Luc CD-1 (mice) [4] | Lipid/MC3 AUC CD-1 mice 0.5 mpk [4] | Lipid/KL22 AUC LDLr−/− mice 0.5 mpk, LDLr [5] | PDI ([1]; Table 1) | other results |
| --- | --- | --- | --- | --- | --- | --- | --- |
|  | CCCCC/C=C\CCCCCN(CCCCC/C=C\CCCCC)CCN1CCN(CCN(CCCCCCCCCCCC)CCN(CCCCCCCCCCCC)CCCCCCCCCCCC)CC1 [Compound 25, N^1-(2-(4-(2-(Di((Z)-dodec-6-en-1-yl)amino)ethyl)piperazin-1-yl)ethyl)-N^1,N^2,N^2-tridodecylethane-1,2-diamine] |  |  |  |  |  | Size (nm) ([1]; Table 1, lipid:DOPE:Chol:PEG-DMG 40:20:38.5:1.5, Luc mRNA, MC3 standard formulation): 90.0 nm; EE (%) ([2]; Table 1, DOPE 40:20:38.5:1.5, Luc mRNA): 97.0% |
|  | CCCCCCCCCCCCN(CCCCCCCCCCCC)CCN1CCN(C(=O)CN(CCCCCCCCCCCC)CCN(CCCCCCCCCCCC)CCCCCCCCCCCC)CC1 [Compound 2, 2-((2-(Didodecylamino)ethyl)(dodecyl)amino)-1-(4-(2-(didodecylamino)ethyl)piperazin-1-yl)ethan-1-one] |  |  |  |  |  | EE (%) ([2]; Table 1, marked *: lipid:DSPC:Chol:PEG-DMG 50:10:38.5:1.5): 96% |
| 43.11% | CCCCCC=CCC=CCCCCCCCCC(CCCCCCCCC=CCC=CCCCCC)OC(=O)CCCN(C)C (centres unmarked) [MC3, heptatriaconta-6,9,28,31-tetraen-19-yl 4-(dimethylamino)butanoate, reference compound] | observed in both hepatocytes and Kupffer cells | 1 | 1 | 0.15 |  | hEPO expression at each time point, comparison in words (Table 6) ([6]; rats i.v., 3, 6, 24 hours): highest hEPO expression; Size (nm) ([1]; Table 20-1): 84.0 nm; Total flux (Luc expression), comparison in words over the time points of the table named [7]: highest total flux; also recorded: highest luciferase expression; Total flux in organs, comparison in words over the organs of the table named [9]: highest total flux; also recorded: highest expression in each organ |
|  | CCCCCCCCCCCCN(CCCCCCCCCCCC)CCN(CCCCCCCCCCCC)CC(=O)N1CCN(C(=O)CN(CCCCCCCCCCCC)CCCCCCCCCCCC)CC1 [Compound 11, 2-(Didodecylamino)-1-(4-(N-(2-(didodecylamino)ethyl)-N-dodecylglycyl)piperazin-1-yl)ethan-1-one] |  | 1.03 |  |  | 0.099 | Tolerability / toxicity in rats (FIG. 8) [10]: improved tolerability as compared to KL22; hEPO expression in rats (FIG. 8) ([6]; rats, 2 mpk, i.v. (Graph A), in words): comparable to MC3; LDL-c levels in LDLR knockout mice (FIG. 9B) [11]: found to drop |
| 37.82% | CCCCCCCCCN(CCCCCCCCC)CCN(CCCCCCCCC)CC(=O)N1CCN(C(=O)CN(CCCCCCCCC)CCCCCCCCC)CC1 [Compound 4, 2-(Dinonylamino)-1-(4-(N-(2-(dinonylamino)ethyl)-N-nonylglycyl)piperazin-1-yl)ethan-1-one] | less protein expression in Kupffer cells |  | 3.70 | 2.03 | 0.120 | hEPO expression compared to MC3 (FIG. 10) [12]: 3 fold |
